Like-named read-outs stand apart in the source and are kept apart here.
Legend:
[1] = Serum stability in RPMI1640 medium containing 10% fetal bovine serum; type: in vitro ADME
Procedure: The stability of conjugates was measured in RPMI1640 cell culture medium containing 10% fetal bovine serum. The serum-containing medium was pre-warmed at 37° C. for 3 min prior to addition of test articles. Test articles, prepared in DMSO as 5 mM stocks, were added to the cell culture media to a final concentration of […]. Aliquots ([…]) were withdrawn in triplicate at 0, 4, 8, 24 and 72 hours and combined with the same volume of ice-cold acetonitrile to terminate the reaction. The mixture was centrifuged at 2,000×g for 10 minutes. One part of the supernatant was mixed with four parts of deionized water to bring down the percentage of organic solvent. The diluted samples were then assayed by LC/MS for the test article. The natural log of the percent remaining was plotted versus time. A linear fit was used to determine the rate constant. The fit was truncated after the percent of remaining test article was less than 10%. The elimination half-lives associated with the disappearance of test articles were determined to compare their relative stability. The assays were carried out by Absorption Systems (Exton, Pa.).

[2] = system: HT-29 colorectal carcinoma; assay: Cytotoxicity assay (monolayer), HT-29; type: cell-based; conditions: Homo sapiens
Procedure: (§1) Statistical Assoc., 81, 991-999, 1986.
(§2) Monolayer assays with tumor cell lines (MCF-7 breast carcinoma and HT-29 colorectal carcinoma from ATCC) were carried out in triplicate in 96-well plates with RPMI1640 medium containing 5% fetal bovine serum, 100 U/ml penicillin and 100 μg/ml streptomycin. Normal human foreskin fibroblasts (HFF #CC-2509) were from Cambrex and were cultured in FGM-2 medium. Exponentially growing cells (5,000 MCF-7 or HT-29; 1,500 HFF) were plated in 100 μl medium and incubated overnight (5% CO2, 37° C.). Compounds (20 pM to 20 μM final concentration, 6-8 doses) and vehicle (DMSO) controls were added and the incubation was continued for an additional 72 hours. Final cell density was determined by incubating cultures with 25 μl AlamarBlue reagent (BioSource, Camarillo, Calif.) for 4 hours, followed by determination of fluorescence at excitation of 544 nm and emission of 590 nm with a SpectroMax Gemini EM fluorescence plate reader (Molecular Devices, Sunnyvale, Calif.). EC50 values were generated from dose-response curves by a 4-parameter method using Softmax PRO software. Mean EC50s (±SD) represent the average of all tests carried out for all lots of a given compound. […] Statistical Assoc., 81, 991-999 (1986).

MCF-7 breast carcinoma = assay: Cytotoxicity assay (monolayer), MCF-7; type: cell-based; conditions: Homo sapiens, MCF7
Procedure: as §1, §2

[3] = target: T1, Human thymidine kinase 1 (TK1) (Homo sapiens, UniProt P04183); assay: Thymidine kinase coupled (kinetic) ATP depletion assay; type: biochemical; conditions: initial velocity relative to thymidine; 100 μM conjugate
T1 construct: His tag (from pET28b(+)) (N); made in house; host or cells: E. coli BL21-codon plus
T1 sequence (P04183 1-234): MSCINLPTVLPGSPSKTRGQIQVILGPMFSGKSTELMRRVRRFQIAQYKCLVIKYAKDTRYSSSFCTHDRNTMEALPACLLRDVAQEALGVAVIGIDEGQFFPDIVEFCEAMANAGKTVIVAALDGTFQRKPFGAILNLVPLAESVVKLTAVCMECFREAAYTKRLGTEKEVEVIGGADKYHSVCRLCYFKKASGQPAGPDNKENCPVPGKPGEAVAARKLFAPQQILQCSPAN

[4] = system: breast carcinoma, colon carcinoma and leukemia; assay: Cytotoxicity of drug-thymidine conjugates (Example 22); type: cell-based
HT29 = assay: Cytotoxicity assay, HT29 SSA (SSA not explained); type: cell-based; conditions: Homo sapiens, HT-29; read-out: HT29 (EC50 Ave) SSA

Relative Percent Remaining at 0 hr ([1]; 37° C., medium with 10% fetal bovine serum, 0 hr): 100%
Relative Percent Remaining at 4 hr ([1]; 37° C., medium with 10% fetal bovine serum, 4 hr): 73%
Relative Percent Remaining at 8 hr ([1]; 37° C., medium with 10% fetal bovine serum, 8 hr): 59%
Relative Percent Remaining at 24 hr ([1]; 37° C., medium with 10% fetal bovine serum, 24 hr): 28%
Relative Percent Remaining at 72 hr ([1]; 37° C., medium with 10% fetal bovine serum, 72 hr): <3.0%
half-life ([1]; bovine): 11 h
Ave. TK1 Kinase Act. [3]: A (A<20)
SMILES: CC(=O)O[C@H]1C(=O)[C@@]2(C)[C@H]([C@H](OC(=O)c3ccccc3)[C@]3(O)C[C@H](OC(=O)[C@H](O)[C@@H](NC(=O)c4ccccc4)c4ccccc4)C(C)=C1C3(C)C)[C@]1(OC(C)=O)CO[C@@H]1C[C@@H]2O [Paclitaxel]
EC50 ([2]; mean ± SD, read-out: HT-29 Monolayer EC50): 5 ± 3 nM
EC50 ([2]; monolayer, 72 hours, AlamarBlue, read-out: HT29 (EC50 Ave) ML): < 100 nM
EC50 (MCF-7 breast carcinoma; mean ± SD, read-out: MCF-7 Monolayer EC50): 5 ± 2 nM
EC50 (MCF-7 breast carcinoma; monolayer, 72 hours, AlamarBlue, read-out: MCF7 (EC50 Ave) ML): < 100 nM
EC50 [4]: 5 to 8 nM
EC50 (HT29): < 100 nM
